Structures are written as SMILES.

Type in all cases: in vivo
Test [1] deals with mice. Put plainly: tail-flick test according to D'Amour and Smith (analgesic activity, reaction time). Conditions: for ED50: Mus musculus, ip, mice. An excerpt: The analgesic activity of the compounds of the present invention was studied by means of the tail-flick test according to D'Amour F. E. and Smith D. L., Journal of pharmacology and experimental therapeutics, 72, 74-79 (1941), the hot plate test according to Woolfe G. and MacDonald A. D., Journal of pharmacology and experimental therapeutics, 80, 300-307 (1944) and the phenylbenzoquinone test according to Siegmund E., Cadmus R. and Lu G, Proc. Soc. Exptle. Biol. Med. 95, 729-731 (1957).
By way of example, the following table lists the results of the analgesic effects observed in mice for several representative products of the invention:
Note: The mean effective dose (ED50) was calculated:
in the tailflick test from the percentage variations in the reaction time
(in seconds) by comparison with the control batch.
In general terms: In hot-plate and tail-flick tests a longer latency is read as antinociception.

For test [2], the system named is mice. Put plainly: hot plate test according to Woolfe and MacDonald (analgesic activity, licking time). Conditions: Mus musculus, ip. An excerpt:
(§1) The analgesic activity of the compounds of the present invention was studied by means of the tail-flick test according to D'Amour F. E. and Smith D. L., Journal of pharmacology and experimental therapeutics, 72, 74-79 (1941), the hot plate test according to Woolfe G. and MacDonald A. D., Journal of pharmacology and experimental therapeutics, 80, 300-307 (1944) and the phenylbenzoquinone test according to Siegmund E., Cadmus R. and Lu G, Proc. Soc. […]. Biol. Med. 95, 729-731 (1957).

For test [3], the system named is mice. Put plainly: four plates test according to Aron et al. (anxiolytic activity, number of shocks received). Conditions: for % number of shocks received: mice, N = 10; for anxiolytic activity in the 4 plates test: in words. An excerpt:
The anxiolytic activity was studied, for its part, by means of the four plates test according to Aron C., Simon P., Larousse C. and Boissier J. R., Neuropharmacology, 10, 459-469, (1971), the conflict test according to Vogel J. R., Beer B., Clody D. E., Physchopharmacol.

Test [4] deals with mice. Put plainly: phenylbenzoquinone test according to Siegmund (analgesic activity, contractions of the abdomen). Conditions: for ED50: Mus musculus, po, mice; for analgesic activity in the Siegmund test: in words.
Source text: as §1

In the next test the test system is rats. Put plainly: Mac Millan punishment test, punishment operating conditioning (anxiolytic activity, number of punished responses). Conditions: for percentage variation in the number of punished responses: rats, N ≥ 9; for anxiolytic activity in the conflict test according to MacMillan: in words. An excerpt:
The anxiolytic activity was studied, for its part, by means of the four plates test according to Aron C., Simon P., Larousse C. and Boissier J. R., Neuropharmacology, 10, 459-469, (1971), the conflict test according to Vogel J. R., Beer B., Clody D. E., Physchopharmacol. 21, 1-7, (1971) and the punishment test according to Mac Millan D. E., J. Exp. Anal. Behav, 19, 133-145 (1973).
PUNISHMENT OPERATING CONDITIONING (RATS)
PERCENTAGE VARIATION IN THE NUMBER
OF PUNISHED RESPONSES (N ≥ 9)
S = Significant modification

Take `FC(F)(F)c1cccc(N2CCN(CCCc3nnc4n3C[C@H]3CCCC[C@H]3C4)CC2)c1` (relative stereo) [Example 3, Cis-10{γ-N-[N'(metatrifluoromethylphenyl)piperazine]n-propyl}-3,3a,4,5,6,7,7a,8-octahydrotriazolo[4,3-b]isoquinoline]: the median effective dose (ED50) is greater than 50 mg/kg in the test with mice [1], 19.8 mg/kg with mice [2] and 16 mg/kg in the test with mice [4]. Besides, the “% number of shocks received” value is “+38%” in the test with mice [3] (2.5 mg/kg i.p.), “+44%” with mice [3] (5 mg/kg i.p.), “+48%” with mice [3] (10 mg/kg i.p.) and 18% in the test with mice [3] (25 mg/kg i.p.). Also, the “anxiolytic activity in the 4 plates test” value in the test on mice [3] was “very significant anxiolytic activity”.
For `Clc1cccc(N2CCN(CCc3nnc4n3[C@H]3CCCC[C@@H]3CC4)CC2)c1` (relative stereo) [Example 12], the “activity in the tail-flick test” value with mice [1] (50 mg/kg i.p., in words) is listed as “active”. Further, the median effective dose (ED50) was 30.7 mg/kg in the test with mice [1], 25.3 mg/kg with mice [2] and 25.7 mg/kg in the test on mice [4]. Besides, the “percentage variation in the number of punished responses” value (“percentage variation in the number” for short) in the test with rats (2.5 mg/kg i.p.) is reported as -33.5%; in the test with rats (5 mg/kg i.p.), -24%; with rats (10 mg/kg i.p.) it was -51.3%; in the test on rats (20 mg/kg i.p.), -75%. Besides, the “% number of shocks received” value with mice [3] (2.5 mg/kg i.p.) is “+38%”; with mice [3] (5 mg/kg i.p.), “+15%”; in the test with mice [3] (10 mg/kg i.p.), “+20%”; in the test on mice [3] (25 mg/kg i.p.), “+2%”. Besides, the “anxiolytic activity in the 4 plates test” value in the test on mice [3] was “very significant anxiolytic activity”.
On to `FC(F)(F)c1cccc(N2CCN(CCc3nnc4n3C[C@H]3CCCC[C@H]3C4)CC2)c1` (relative stereo) [Example 16], for which the median effective dose (ED50) in the test on mice [1] is greater than 50 mg/kg; in the test on mice [2], 24.3 mg/kg; in the test on mice [4], 17 mg/kg. The “percentage variation in the number” value with rats (2.5 mg/kg i.p.) is “+5.4%”; in the test with rats (5 mg/kg i.p.), “+42.2%”; in the test on rats (10 mg/kg i.p.), “+125.9%”; with rats (20 mg/kg i.p.) it was -60.7%. Also, the “anxiolytic activity in the conflict test according to MacMillan” value in the test with rats was “very significant anxiolytic activity”. Further, the “% number of shocks received” value in the test on mice [3] (2.5 mg/kg i.p.) is given as -12%; in the test on mice [3] (5 mg/kg i.p.) it was “+2%”; in the test with mice [3] (10 mg/kg i.p.) it was “+32%”; in the test on mice [3] (25 mg/kg i.p.), “+5%”. The “anxiolytic activity in the 4 plates test” value with mice [3] is reported as “very significant anxiolytic activity”.
On to `Clc1cccc(N2CCN(CCCc3nnc4n3C[C@H]3CCCC[C@H]3C4)CC2)c1` (relative stereo) [Example 40], for which the median effective dose (ED50) is greater than 50 mg/kg with mice [1], 53.9 mg/kg in the test on mice [2] and 7.5 mg/kg in the test on mice [4]. The “analgesic activity in the Siegmund test” value in the test on mice [4] is “very significant analgesic activiy”.
With `Clc1cccc(N2CCN(CCCc3nnc4n3[C@H]3CCCC[C@H]3CC4)CC2)c1` (relative stereo) [Example 42], the ED50 is greater than 50 mg/kg with mice [1] and 11.4 mg/kg with mice [4].
For the compound `Clc1cccc(N2CCN(CCc3nnc4n3CC3CCCCC43)CC2)c1` (stereo not drawn) [Example 2, 9-{β-N'-[N-(metachlorophenyl)piperazine]ethyl}-[7H]-2b,3,4,5,6,6a-hexahydrotriazolo[3,4-a]cyclohexa(c)pyrrole], the ED50 in the test with mice [1] is greater than 50 mg/kg; with mice [2], greater than 50 mg/kg; in the test on mice [4], 8.7 mg/kg. Further, the “analgesic activity in the Siegmund test” value with mice [4] is reported as “very significant analgesic activiy”.
With `FC(F)(F)c1cccc(N2CCN(CCc3nnc4n3CC3CCCC43)CC2)c1` (centres unmarked) [Example 17a], the ED50 in the test on mice [1] was greater than 50 mg/kg; in the test with mice [2] it was 21.3 mg/kg; in the test on mice [4], 5.82 mg/kg. Also, the “percentage variation in the number” value with rats (2.5 mg/kg i.p.) is reported as “+47.8%”; with rats (5 mg/kg i.p.), “+33.6%”; in the test with rats (10 mg/kg i.p.), “+42.6%”; with rats (20 mg/kg i.p.) it was -70.3%. For the same compound, in the test with rats, the “anxiolytic activity in the conflict test according to MacMillan” value is recorded as “very significant anxiolytic activity”. In addition, the “% number of shocks received” value with mice [3] (2.5 mg/kg i.p.) is given as “+18%”; with mice [3] (5 mg/kg i.p.), “+26%”; in the test with mice [3] (10 mg/kg i.p.), “+35%”; with mice [3] (25 mg/kg i.p.), “+61%”. Further, the “anxiolytic activity in the 4 plates test” value in the test on mice [3] is recorded as “very significant anxiolytic activity”.
As for `FC(F)(F)c1cccc(N2CCN(CCc3nnc4n3CC3CCCC43)CC2)c1` (centres unmarked) [Example 17b], the “% number of shocks received” value is given as “+15%” with mice [3] (2.5 mg/kg i.p.), “+34%” in the test on mice [3] (5 mg/kg i.p.), “+53%” in the test on mice [3] (10 mg/kg i.p.) and “+27%” in the test on mice [3] (25 mg/kg i.p.). Besides, the “anxiolytic activity in the 4 plates test” value in the test with mice [3] is given as “very significant anxiolytic activity”.
Regarding `FC(F)(F)c1cccc(N2CCN(CCc3nnc4n3CC3CCCCC43)CC2)c1` (centres unmarked) [Example 36], the results for the ED50 in the test on mice [1], in the test with mice [2] and in the test with mice [4] were greater than 50 mg/kg, 25 to 50 mg/kg and 4.3 mg/kg, respectively. In addition, the “% number of shocks received” value in the test on mice [3] (2.5 mg/kg i.p.) is listed as -12%; in the test with mice [3] (5 mg/kg i.p.), -4%; with mice [3] (10 mg/kg i.p.), -4%; with mice [3] (25 mg/kg i.p.), “+39%”. The “anxiolytic activity in the 4 plates test” value in the test with mice [3] is listed as “very significant anxiolytic activity”. Moreover, the “analgesic activity in the Siegmund test” value in the test with mice [4] is given as “very significant analgesic activiy”.

Usually ED50 stands for the dose at which the effect has come halfway, by size or by number of responders. The low end stands for an effect at a small dose, the high end for a need for a large dose.

The values are drawn from patent US4711885A, “N-(N'-phenylpiperazine)-alkyl triazole compounds having anxiolytic and analgesic properties” (Adir et Compagnie, priority 1985, dated 1987).
